From paper PMC7551256, “Biochemical Characterization of a Novel Endo-1,3-β-Glucanase from the Scallop Chlamys farreri” (Marine Drugs, 2020)

Assays:
Lcf [1] = target: T1, Lcf (Azumapecten farreri, UniProt A0A140H631); assay: ESI-MS of transglycosylation products; type: biochemical; conditions: glycosyl acceptor 2 mg/mL; donor laminarihexaose 2 mg/mL; 25 mM sodium acetate pH 5.6, 37 °C, 5 min
T1 construct: full length without signal peptide; secreted from Brevibacillus (pNCMO2, BamHI/XhoI); about 37 kDa; primers encode AGFRDDF at N-terminus and DYIEMIPH-stop at C-terminus
T1 sequence (A0A140H631 16-340): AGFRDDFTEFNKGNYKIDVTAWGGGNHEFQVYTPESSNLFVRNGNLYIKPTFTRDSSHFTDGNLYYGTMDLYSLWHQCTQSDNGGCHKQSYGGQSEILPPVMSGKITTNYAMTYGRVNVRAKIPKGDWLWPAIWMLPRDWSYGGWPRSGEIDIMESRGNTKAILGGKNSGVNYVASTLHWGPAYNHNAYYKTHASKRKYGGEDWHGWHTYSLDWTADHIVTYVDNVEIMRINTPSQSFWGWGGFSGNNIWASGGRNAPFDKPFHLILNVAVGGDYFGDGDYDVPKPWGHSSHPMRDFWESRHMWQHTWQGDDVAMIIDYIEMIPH

Lcf [2] = target: T1, Lcf; assay: TLC of hydrolysis products; ESI-MS; type: biochemical; conditions: 0.1% (w/w) substrate, 50 mM sodium acetate pH 5.6, 37 °C; hydrolysed, also glycosyl donor

Row | Structure (SMILES) | ESI-MS of transglycosylation products (Lcf [1]) | TLC of hydrolysis products; ESI-MS (Lcf [2])
1 | OC[C@@H](O)[C@@H](O)[C@H](O)[C@@H](O)CO [D-sorbitol] | three transglycosylation products were observed in the presence of D-sorbitol | –
2 | OC[C@H]1O[C@@H](O[C@@H]2[C@@H](O)[C@H](O[C@@H]3[C@@H](O)[C@H](O[C@@H]4[C@@H](O)[C@H](O[C@@H]5[C@@H](O)[C@H](O[C@H]6[C@H](O)[C@@H](CO)OC(O)[C@@H]6O)O[C@H](CO)[C@H]5O)O[C@H](CO)[C@H]4O)O[C@H](CO)[C@H]3O)O[C@H](CO)[C@H]2O)[C@H](O)[C@@H](O)[C@@H]1O (some centres unmarked) [laminarihexaose] | – | Lcf showed a more efficient cleavage rate toward laminarinexaose
